{"source": "patent US7554012B2", "about": "“Plants and plant cells exhibiting resistance to AMPA, and methods for making the same” (priority 1998, dated 2009)", "key": {"[1]": {"system": "wild type Coker 312 plants", "assay": "AMPA spray on cotton plants", "format": "in vivo, cotton (Gossypium hirsutum L.)", "description": "Previously identified plants transformed with a double gene glyphosate resistance cassette comprised of EPSPS and GOX encoding genes were determined to be resistant to glyphosate when applied at 48 ounces per acre through the 6-7 leaf stage, however severe bleaching of the leaves was observed. This phytotoxic effect was presumed to be due to the formation of AMPA as a result of GOX mediated glyphosate degradation. To test this, AMPA was sprayed at three different rates onto wild type Coker 312 plants. […] To test this, cotton plants expressing GOX or GOX plus EPSPS alone or in combination with PhnO expression were treated with [^14C]-glyphosate, and the metabolism of the isotope labeled glyphosate was monitored in leaf tissue seven days after application."}, "[2]": {"system": "tobacco lines 33476, 36779, 37235", "assay": "[^14C]-glyphosate metabolism in R1 tobacco plants", "format": "in vivo", "source_text": "Seed from Ro transformation events were obtained after self crossing in growth chamber conditions. Ro seed were cured and planted to generate R1 progeny. Source leaves of R1 progeny at the five leaf stage were exposed to [^14C]-glyphosate by spotting a 2 microliter sample onto each vein (50 microliters of [^14C]-glyphosate Na+ salt, 517,000 dpm/microgram, 0.42 microgram/microliter mixed with 10 microliters of glycerol). Each leaf received several spots depending on the number of veins on that leaf. Three days later 15 additional 2 microliter spots were applied to each leaf. Two weeks later, five 2 microliter spots were applied to each of two leaves on each plant. These were new leaves and were not the older leaves to which glyphosate was initially applied. Five days after this last application, about 300 milligrams of tissue was sampled from two sink leaves on each plant. The samples from each plant were homogenized in separate 1 ml volumes of deionized water, centrifuged at 9,000 RPM in a microcentrifuge, and the aqueous volumes were collected and stored on ice. Extracts were analyzed by HPLC for the presence of [^14C] labeled metabolites as in Example 2. […] In addition, the lack of a bleaching effect in line 36779 after exposure to glyphosate is consistent with the presence of functional GOX and PhnO enzymes and the absence of detectable [^14C]-AMPA."}, "[3]": {"system": "R2 glyphosate tolerant wheat plants", "assay": "[^14C]-glyphosate metabolism in wheat plants", "format": "in vivo, Triticum aestivum cv Bobwhite", "quoted_text": "R2 seed was germinated from a number of different glyphosate tolerant lines to produce R2 glyphosate tolerant plants to which [^14C]-glyphosate was applied as described above. Plant leaf and stem tissues were harvested at 48 hours after glyphosate application, and water soluble compounds were extracted as described above and analyzed by HPLC as in example 2 for the presence of [^14C]-glyphosate metabolites. The total area under the [^14C] isotope labeled peaks eluting from the column was summed to provide a baseline of 100% [^14C]-compound identification for each sample analyzed."}, "[4]": {"settings": "EPSPS + PhnO + GOX, Plant Line 25462"}, "[5]": {"settings": "EPSPS + PhnO + GOX, Plant Line 26281"}, "[6]": {"settings": "EPSPS + PhnO + GOX, Plant Line 28598"}, "[7]": {"settings": "non-recombinant Bobwhite plants"}}, "note": "Values joined by “and” are separate entries in the source; they are usually repeats but may differ in a detail not shown here. Identical values can stand only once."}
{"molecule": "NCP(=O)(O)O", "note": "[AMPA, N-aminomethyl phosphonic acid]", "values": [{"measurement": "phytotoxic effect on plants", "setting": "[1]; 64 ounces per acre, eight days post-application", "value": "Leaf chlorosis and stunted growth"}, {"measurement": "phytotoxic effect on plants", "setting": "[1]; 640 ounces per acre, four days post-application", "value": "Leaf chlorosis and stunted growth"}]}
{"molecule": "N-phosphono-methyl-glycine [Glyphosate]", "values": [{"measurement": "[^14C] labeled metabolites in sink leaf extract", "setting": "[2]; line 33476 (GOX)", "value": "only [^14C]-AMPA"}, {"measurement": "[^14C] labeled metabolites in sink leaf extract", "setting": "[2]; line 36779", "value": "Only N-acetyl-[^14C]-AMPA"}, {"measurement": "[^14C] labeled metabolites in sink leaf extract", "setting": "[2]; line 37235", "value": "non-metabolized [^14C]-glyphosate as well as a trace but measurable amount of [^14C]-AMPA"}, {"measurement": "Acetyl-[^14C]-AMPA, of summed [^14C] peaks", "setting": "[3]; [4]", "value": 0, "unit": "%"}, {"measurement": "[^14C]-Glyphosate, of summed [^14C] peaks", "setting": "[3]; [4]", "value": "48% and 44% and 54%"}, {"measurement": "Acetyl-[^14C]-AMPA, of summed [^14C] peaks", "setting": "[3]; [5]", "value": "17% and 13% and 7%"}, {"measurement": "[^14C]-AMPA, of summed [^14C] peaks", "setting": "[3]; [5]", "value": "14% and 11% and 7%"}, {"measurement": "[^14C]-Glyphosate, of summed [^14C] peaks", "setting": "[3]; [5]", "value": "48% and 64% and 38%"}, {"measurement": "[^14C]-Glyphosate, of summed [^14C] peaks", "setting": "[3]; EPSPS + PhnO + GOX, Plant Line 27249", "value": "6% and 14% and 5%"}, {"measurement": "Acetyl-[^14C]-AMPA, of summed [^14C] peaks", "setting": "[3]; [6]", "value": 5, "unit": "%"}, {"measurement": "[^14C]-AMPA, of summed [^14C] peaks", "setting": "[3]; [6]", "value": 7, "unit": "%"}, {"measurement": "[^14C]-Glyphosate, of summed [^14C] peaks", "setting": "[3]; [6]", "value": "20% and 25%"}, {"measurement": "[^14C]-Other, of summed [^14C] peaks", "setting": "[3]; [6]", "value": "68% and 63%"}, {"measurement": "Acetyl-[^14C]-AMPA, of summed [^14C] peaks", "setting": "[3]; EPSPS, Plant Line 24756", "value": "1% and 0%"}, {"measurement": "[^14C]-AMPA, of summed [^14C] peaks", "setting": "[3]; EPSPS, Plant Line 24756", "value": "25% and 46%"}, {"measurement": "[^14C]-Glyphosate, of summed [^14C] peaks", "setting": "[3]; EPSPS, Plant Line 24756, 48 hours after application", "value": "43% and 53%"}, {"measurement": "Acetyl-[^14C]-AMPA, of summed [^14C] peaks", "setting": "[3]; EPSPS, Plant Line 25397", "value": "0% and 1.2%"}, {"measurement": "[^14C]-AMPA, of summed [^14C] peaks", "setting": "[3]; EPSPS, Plant Line 25397", "value": "38% and 19% and 20%"}, {"measurement": "[^14C]-Glyphosate, of summed [^14C] peaks", "setting": "[3]; EPSPS, Plant Line 25397", "value": "61% and 37% and 64%"}, {"measurement": "Acetyl-[^14C]-AMPA, of summed [^14C] peaks", "setting": "[3]; [7]", "value": 0, "unit": "%"}, {"measurement": "[^14C]-AMPA, of summed [^14C] peaks", "setting": "[3]; [7]", "value": "26% and 15% and 24%"}]}
